SMILES strings stand for the structures.

The values that follow come from article PMC3226453, “Targeting the Wolbachia Cell Division Protein FtsZ as a New Approach for Antifilarial Therapy” (PLoS Neglected Tropical Diseases, 2011).

Experiment [1] deals with T1, Ec-FtsZ (Escherichia coli, UniProt P0A9A6).
T1 construct: N-terminal His tag, from strain MG1655
T1 sequence (P0A9A6 1-383): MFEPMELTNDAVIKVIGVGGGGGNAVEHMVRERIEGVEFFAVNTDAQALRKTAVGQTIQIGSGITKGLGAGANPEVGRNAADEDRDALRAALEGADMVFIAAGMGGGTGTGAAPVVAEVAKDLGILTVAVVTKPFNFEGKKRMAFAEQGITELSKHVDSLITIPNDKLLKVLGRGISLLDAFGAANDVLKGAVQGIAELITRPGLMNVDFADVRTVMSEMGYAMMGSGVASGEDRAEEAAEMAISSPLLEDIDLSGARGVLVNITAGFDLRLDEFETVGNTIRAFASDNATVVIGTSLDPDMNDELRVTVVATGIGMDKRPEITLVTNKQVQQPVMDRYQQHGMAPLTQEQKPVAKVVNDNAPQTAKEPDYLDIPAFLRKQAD
Description: enzyme-coupled GTPase assay, dose response. The format is biochemical.

Experiment [2] has as its target T1, Ec-FtsZ. Description: enzyme-coupled GTPase assay, specific activity. The format is biochemical.
Experiment [3] deals with T1, Ec-FtsZ. Briefly: enzyme-coupled (PK/LDH, NADH) GTPase assay. The format is biochemical.
The target of another experiment is T2, (UniProt Q5GS34).
T2 construct: gene ftsZ; full-length, N-terminal His6 tag
Briefly: enzyme-coupled (PK/LDH, NADH) GTPase assay. The experiment is classed as biochemical, Wolbachia endosymbiont of Brugia malayi.

T2 sequence (Q5GS34 1-396 limits assumed): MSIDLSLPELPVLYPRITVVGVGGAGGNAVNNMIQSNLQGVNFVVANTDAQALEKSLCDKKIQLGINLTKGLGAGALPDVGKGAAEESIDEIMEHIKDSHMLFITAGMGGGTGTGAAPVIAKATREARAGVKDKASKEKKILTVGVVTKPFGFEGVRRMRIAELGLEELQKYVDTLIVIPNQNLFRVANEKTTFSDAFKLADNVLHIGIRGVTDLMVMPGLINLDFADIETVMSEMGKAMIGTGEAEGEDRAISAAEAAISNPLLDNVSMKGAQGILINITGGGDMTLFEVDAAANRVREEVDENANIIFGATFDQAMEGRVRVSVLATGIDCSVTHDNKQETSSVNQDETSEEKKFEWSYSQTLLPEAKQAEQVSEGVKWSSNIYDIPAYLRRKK

With `COc1ccc(-c2ccc(C(C(=O)NC3CCCCC3)N(Cc3ccccn3)C(=O)c3ccccc3)cc2)cc1` (centres unmarked) [AV-C6], at Ec-FtsZ [1], the “enzyme-coupled GTPase assay, dose response” value was “both compounds inhibited Ec-FtsZ activity although each was slightly less potent”.
`Nc1nc2c(ncn2[C@@H]2O[C@H](COP(=O)(O)OP(=O)(O)OP(=O)(O)O)[C@@H](O)[C@H]2O)c(=O)[nH]1` [GTP]: the “enzyme-coupled GTPase assay, specific activity” value at Ec-FtsZ [2] was 0.22 ± 0.015 µmol/min/mg.
In the case of `CCCCNC(=O)C(c1ccc2cc(O)ccc2c1)N(Cc1ccc(Cl)cc1)C(=O)CCC` (centres unmarked) [N938], the “enzyme-coupled GTPase assay, dose response” value at Ec-FtsZ [1] is “both compounds inhibited Ec-FtsZ activity although each was slightly less potent”.
For `COc1ccc2cc3[n+](cc2c1OC)CCc1cc2c(cc1-3)OCO2` [berberine], the IC50 against Ec-FtsZ [3] was determined as 240 µM; against (UniProt Q5GS34), 320 µM.
